{"source": "patent US10670616B2", "about": "“Microchip for assay of blood properties, and device for assay of blood properties” (FUJIMORI KOGYO CO., LTD., priority 2014, dated 2020)", "molecules": {"B1": {"name": "abciximab (antibody, chains of the INN, looked up, V domains shown)", "VH": "EVQLQQSGTVLARPGASVKMSCEASGYTFTNYWMHWVKQRPGQGLEWIGAIYPGNSDTSYIQKFKGKAKLTAVTSTTSVYMELSSLTNEDSAVYYCTLYDGYYVFAYWGQGTLVTVSA", "VL": "EIVLTQSPVTLSVTPGDSVSLSCRASRDISNNLHWFQQTSHESPRLLIKYASQSMSGIPSRFSGSGSGTDFTLSINSVETEDFGMYFCQQTNSWPYTFGGGTKLEIK", "modifications": "Fab"}}, "key": {"[1]": {"tested_on": "thrombus formation in blood", "test": "Microchip pressure analysis, first channel, collagen + tissue thromboplastin, 8 μl/min (Example 4)", "assay_type": "cell-based", "details": "for integrated values of the pressures measured for 10 minutes, first channel: 8 μL/min", "experimental": "(§1) A microchip having the same shape as in Examples 1 to 3 was prepared, and, in the second substrate 1b, a solution prepared by mixing 3 mg/ml collagen solution and 0.4 mg/ml tissue thromboplastin solution at a ratio of 1:1 was applied to the positions corresponding to the first reaction section 102 and the second reaction section 112 such that each applied area has a size of 6 mm×6 mm. The microchip prepared was used in the following experiment.\n(§2) Blood was collected using a blood collection tube containing 3.2% sodium citrate, manufactured by Terumo Corporation. To the collected blood, 50 μg/ml (final concentration) CTI and 12 mM (final concentration) calcium chloride were added, and the resulting blood was used for perfusion of the first channel at a flow rate of 8 μl/min. (initial wall shear rate, about 660 s^−1) and the second channel at a flow rate of 24 μl/min. (initial wall shear rate, about 2000 s^−1) for 10 minutes while pressure analysis was carried out.\n(§3) The same experiment as in Example 4-1 was carried out using (1) blood prepared by 2-fold dilution of the citrate blood with physiological saline; (2) blood prepared by adding a 0.5 U vWF (von Willebrand factor) formulation (CSL-Behring) to the 2-fold diluted blood of (1); (3) blood prepared by adding a 0.5 U PCC formulation (CSL-Behring) to the 2-fold diluted blood of (1); (4) blood prepared by adding 1 U heparin; or (5) blood prepared by adding 3 μg/ml Abciximab (Eli Lilly).\n(§4) The integrated values of the pressures measured for 10 minutes, and the ratios between the first channel and the second channel are shown in the following Table 1."}, "blood coagulation [2]": {"tested_on": "blood coagulation", "test": "ROTEM analysis of blood coagulation in the absence of blood flow (Comparative Example 1)", "assay_type": "cell-based", "details": "12 mM calcium chloride, 50 μg/ml CTI and 1 μg/ml Arixtra", "experimental": "Blood was collected using a blood collection tube containing 3.2% sodium citrate, manufactured by Terumo Corporation. To the collected blood, 12 mM calcium chloride; 12 mM calcium chloride and 50 μg/ml CTI; or 12 mM calcium chloride, 50 μg/ml CTI, and 1 μg/ml Arixtra (synthetic pentasaccharide, GlaxoSmithKline K.K.); was/were added, and each resulting blood was analyzed by ROTEM (Tem International GmbH)."}, "blood coagulation [3]": {"tested_on": "blood coagulation", "test": "ROTEM analysis of canine blood coagulation in the absence of blood flow (Comparative Example 2)", "assay_type": "cell-based", "details": "0.5 U/ml with 50 μg/ml CTI and 12 mM calcium chloride", "experimental": "Canine blood was anticoagulated with 3.2% sodium citrate. Subsequently, 12 mM calcium chloride; 50 μg/ml (final concentration) CTI and 12 mM (final concentration) calcium chloride; or 0.5 U/ml (final concentration) danaparoid sodium, 50 μg/ml CTI, and 12 mM (final concentration) calcium chloride; was/were added to the blood, and blood coagulation in the absence of blood flow was analyzed by ROTEM (Tem International GmbH)."}, "[4]": {"tested_on": "white thrombi in the presence of blood flow", "test": "Microchip pressure analysis with canine blood (Examples 5, 6)", "assay_type": "cell-based", "details": "0.5 U danaparoid sodium, 24 and 8 μl/min, 10 minutes", "experimental": "Canine blood was anticoagulated with 3.2% sodium citrate. Subsequently, 50 μg/ml (final concentration) CTI and 12 mM (final concentration) calcium chloride were added to the blood, and the resulting blood was used for perfusion of the first channel at a flow rate of 24 μl/min. and the second channel at a flow rate of 8 μl/min. for 10 minutes while pressure analysis was carried out.\nAn experiment was carried out in the same manner as in Example 5 except that 0.5 U danaparoid sodium was added to the dog sodium citrate blood."}, "[5]": {"tested_on": "thrombus formation in blood", "test": "Microchip pressure analysis, first channel, collagen + 0.4 mg/ml tissue thromboplastin, 8 μl/min (Examples 9, 10)", "assay_type": "cell-based", "details": "for areas under pressure, first channel: 8 μL/min", "experimental": "(§5) The same microchip as in Examples 1 to 3 was used, except that, in the second substrate 1b, a solution prepared by mixing 3 mg/ml collagen and 0.4 mg/ml tissue thromboplastin solution at a ratio of 1:1 and a solution prepared by mixing 3 mg/ml collagen and 0.2 mg/ml tissue thromboplastin solution at a ratio of 1:1 were applied to the positions corresponding to the first reaction section 102 and the second reaction section 112, respectively, such that each applied area has a size of 6 mm×6 mm. The microchip prepared was used in the following experiment.\n(§6) Blood was collected using a blood collection tube containing 3.2% sodium citrate, manufactured by Terumo Corporation. To the collected blood, 50 μg/ml (final concentration) CTI and 12 mM (final concentration) calcium chloride were added, and the resulting blood was used for perfusion of the first channel at a flow rate of 8 μl/min. and the second channel at a flow rate of 24 μl/min. for 10 minutes while pressure analysis was carried out.\n(§7) The same experiment as in Example 9 was carried out except that blood prepared by 2-fold dilution with physiological saline (Otsuka Pharmaceutical Co., Ltd.), blood prepared by 2-fold dilution with physiological saline+addition of 0.5 U/ml vWF (CSL-Behring), blood prepared by 2-fold dilution+addition of 0.5 U/ml PCC (CSL-Behring), blood prepared by addition of 1 U/ml heparin, or blood prepared by addition of 2 μg/ml abciximab, was used."}, "[6]": {"tested_on": "thrombus formation in blood", "test": "Microchip pressure analysis, second channel, collagen + 0.2 mg/ml tissue thromboplastin, 24 μl/min (Examples 9, 10)", "assay_type": "cell-based", "details": "for areas under pressure, second channel: 24 μL/min", "experimental": "as §5, §6, §7"}, "[7]": {"tested_on": "thrombus formation in blood", "test": "Microchip pressure analysis, second channel, collagen + tissue thromboplastin, 24 μl/min (Example 4)", "assay_type": "cell-based", "details": "for integrated values of the pressures measured for 10 minutes, second channel: 24 μL/min", "experimental": "as §1, §2, §3, §4"}, "[8]": {"tested_on": "platelet-specific thrombus formation in blood", "test": "Microchip pressure analysis, second channel coated with only collagen, hirudin-treated blood (Examples 1, 2)", "assay_type": "cell-based, human", "experimental": "(§8) Two transparent substrates, that is, the first substrate 1a shown in FIG. 1(A) and the second substrate 1b shown in FIG. 1(B) (injection-molded products manufactured by Richell Corporation), were prepared. In the first substrate 1a, each of the channels 101 and 111 has a length of 20 mm, depth of 40 μm, and width of 2 mm, and each of the waste liquid storage sections has a length of 30 mm, depth of 1.3 mm, and width of 8.5 mm.\n(§9) In the substrate 1a, 25 dividing walls each having a height of 40 μm, width of 40 μm, and length of 1.5 mm were arranged at equal intervals at positions corresponding to the first reaction section and the second reaction section of the first channel and the second channel, to provide channel dividing walls 109 and 119, respectively.\n(§10) In the second substrate 1b, the holes corresponding to the inlets 104 and 114 were provided as penetrating holes each having an inner diameter of 2 mm and a circular cross-sectional shape. On the other hand, the holes corresponding to the air holes 105 and 115 were provided as penetrating holes each having an inner diameter of 1 mm and a circular cross-sectional shape. […]\n(§11) Pumps 107 and 117 were connected to the reservoirs 106 and 116 through tubes, and the pressures applied to the pumps were measured using pressure sensors 108 and 118."}, "[9]": {"tested_on": "thrombus formation (fibrin and platelets) in blood", "test": "Microchip pressure analysis, first channel coated with collagen and tissue thromboplastin, recalcified citrate blood + CTI (Examples 1, 2)", "assay_type": "cell-based, human", "experimental": "as §8, §9, §10, §11"}, "[10]": {"details": "undiluted blood, heparin 1 U/ml or abciximab 3 μg/ml, control 409.3"}, "[11]": {"details": "undiluted blood, 1 U/ml heparin or 2 μg/ml abciximab, cont 393.8"}, "[12]": {"details": "undiluted blood, 1 U/ml heparin or 2 μg/ml abciximab, cont 438.2"}, "[13]": {"details": "undiluted blood, heparin 1 U/ml or abciximab 3 μg/ml, control 482"}}}
{"molecule": "CO[C@H]1O[C@H](COS(=O)(=O)O)[C@@H](O[C@@H]2O[C@@H](C(=O)O)[C@@H](O[C@H]3O[C@H](COS(=O)(=O)O)[C@@H](O[C@@H]4O[C@H](C(=O)O)[C@@H](O[C@H]5O[C@H](COS(=O)(=O)O)[C@@H](O)[C@H](O)[C@H]5NS(=O)(=O)O)[C@H](O)[C@H]4O)[C@H](OS(=O)(=O)O)[C@H]3NS(=O)(=O)O)[C@H](O)[C@H]2OS(=O)(=O)O)[C@H](O)[C@H]1NS(=O)(=O)O", "note": "[Arixtra]", "values": [{"measurement": "change in the pressure waveform", "setting": "[1]; Example 4-1 conditions, further addition of 0.5 μg/ml to the blood", "value": "no remarkable change in the pressure waveform"}, {"measurement": "blood coagulation in the absence of blood flow", "setting": "blood coagulation [2]", "value": "strongly suppresses blood coagulation"}]}
{"molecule": "danaparoid sodium", "values": [{"measurement": "blood coagulation in the absence of blood flow", "setting": "blood coagulation [3]", "value": "remarkable delay of blood coagulation"}, {"measurement": "white thrombi in the presence of blood flow", "setting": "[4]", "value": "hardly suppresses white thrombi"}]}
{"molecule": "heparin [reference compound]", "values": [{"measurement": "integrated values of the pressures measured for 10 minutes, first channel", "setting": "[1]; [10]", "value": 127.3}, {"measurement": "areas under pressure, first channel", "setting": "[5]; [11]", "value": 12}, {"measurement": "thrombus formation in the first channel", "setting": "[5]; Examples 9 and 10", "value": "more strongly suppressed thrombus formation in the first channel"}, {"measurement": "areas under pressure, second channel", "setting": "[6]; [12]", "value": 198}, {"measurement": "integrated values of the pressures measured for 10 minutes, second channel", "setting": "[7]; [13]", "value": 328.4}]}
{"molecule": "vWF: vWF (von Willebrand factor) formulation (CSL-Behring)", "values": [{"measurement": "integrated values of the pressures measured for 10 minutes, first channel", "setting": "[1]; 50% dilution of citrate blood with physiological saline + 0.5 U/ml factor, 50% dilution alone 203.9", "value": 171.2}, {"measurement": "areas under pressure, first channel", "setting": "[5]; 50% dilution with physiological saline + 0.5 U/ml factor, 50% dil alone 195.8", "value": 297.9}, {"measurement": "areas under pressure, second channel", "setting": "[6]; 50% dilution with physiological saline + 0.5 U/ml factor, 50% dil alone 110.2", "value": 282.8}, {"measurement": "integrated values of the pressures measured for 10 minutes, second channel", "setting": "[7]; 50% dilution of citrate blood with physiological saline + 0.5 U/ml factor, 50% dilution alone 248.2", "value": 381.1}, {"measurement": "thrombi in the second channel", "setting": "[7]; Example 4-2, 24 μl/min", "value": "remarkable recovery of thrombi in the second channel"}]}
{"molecule": "B1", "values": [{"measurement": "integrated values of the pressures measured for 10 minutes, first channel", "setting": "[1]; [10]", "value": 394.8}, {"measurement": "areas under pressure, first channel", "setting": "[5]; [11]", "value": 258}, {"measurement": "areas under pressure, second channel", "setting": "[6]; [12]", "value": 6}, {"measurement": "thrombus formation in the second channel", "setting": "[6]; Examples 9 and 10", "value": "more strongly suppressed thrombus formation in the second channel"}, {"measurement": "thrombus formation in the second channel", "setting": "[8]; Examples 1 and 2", "value": "suppressed"}, {"measurement": "integrated values of the areas below 60 kPa, second channel", "setting": "[8]; hirudin blood, 18 μl/min, 10 minutes, 10 mM aspirin + 100 μM AR-C66096, 3 μg/ml abciximab or 200 nM OS-1, control 372", "value": 5.4}, {"measurement": "integrated values of the pressures measured for 10 minutes, second channel", "setting": "[7]; [13]", "value": 20.5}, {"measurement": "thrombus formation in the first channel", "setting": "[9]; Examples 1 and 2", "value": "suppressed"}, {"measurement": "integrated values of the areas below 60 kPa, first channel", "setting": "[9]; citrate blood + 12 mM calcium chloride + 50 μg/ml CTI, 18 μl/min, 10 minutes, 10 mM aspirin + 100 μM AR-C66096, 3 μg/ml abciximab or 200 nM OS-1, control 457", "value": 27.0}]}
